Reference: patent US9662318B2, “Bitopic muscarinic agonists and antagonists and methods of synthesis and use thereof” (BARRY UNIVERSITY, INC., priority 2012, dated 2017)
Where a name gives a salt, the structure may show the parent alone.

Assays:
M4 muscarinic receptor [1] = target: T1, M4 muscarinic receptor (Homo sapiens, UniProt P08173); assay: Accumulation of inositol phosphates in CHO cells; type: cell-based; conditions: for Effect of ligands on basal activity (accumulation of inositol phosphates as percent of accumulation in the absence of the ligand): M4, ligand 0.1 mM, no carbachol
T1 construct: host or cells: Chinese hamster ovary cells
T1 sequence (P08173 1-479): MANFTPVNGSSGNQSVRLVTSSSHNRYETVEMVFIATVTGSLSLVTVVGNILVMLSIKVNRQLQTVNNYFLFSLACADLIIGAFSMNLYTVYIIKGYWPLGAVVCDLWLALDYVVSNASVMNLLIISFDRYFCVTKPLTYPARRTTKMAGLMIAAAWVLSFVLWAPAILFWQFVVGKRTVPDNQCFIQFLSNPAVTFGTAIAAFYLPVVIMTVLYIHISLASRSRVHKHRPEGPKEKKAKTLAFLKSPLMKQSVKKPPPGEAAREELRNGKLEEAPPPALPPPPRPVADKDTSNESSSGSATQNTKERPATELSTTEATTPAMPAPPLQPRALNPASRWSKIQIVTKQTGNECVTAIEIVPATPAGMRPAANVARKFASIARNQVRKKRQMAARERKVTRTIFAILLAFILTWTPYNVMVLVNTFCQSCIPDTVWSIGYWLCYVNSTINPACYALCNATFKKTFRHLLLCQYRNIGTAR

M5 muscarinic receptor [2] = target: T2, M5 muscarinic receptor (Homo sapiens, UniProt P08912); assay: Accumulation of inositol phosphates in CHO cells; type: cell-based; conditions: for Effect of ligands on basal activity (accumulation of inositol phosphates as percent of accumulation in the absence of the ligand): M5, ligand 0.1 mM, no carbachol
T2 construct: host or cells: CHO (Chinese hamster ovary) cells, stably transfected
T2 sequence (P08912 1-532): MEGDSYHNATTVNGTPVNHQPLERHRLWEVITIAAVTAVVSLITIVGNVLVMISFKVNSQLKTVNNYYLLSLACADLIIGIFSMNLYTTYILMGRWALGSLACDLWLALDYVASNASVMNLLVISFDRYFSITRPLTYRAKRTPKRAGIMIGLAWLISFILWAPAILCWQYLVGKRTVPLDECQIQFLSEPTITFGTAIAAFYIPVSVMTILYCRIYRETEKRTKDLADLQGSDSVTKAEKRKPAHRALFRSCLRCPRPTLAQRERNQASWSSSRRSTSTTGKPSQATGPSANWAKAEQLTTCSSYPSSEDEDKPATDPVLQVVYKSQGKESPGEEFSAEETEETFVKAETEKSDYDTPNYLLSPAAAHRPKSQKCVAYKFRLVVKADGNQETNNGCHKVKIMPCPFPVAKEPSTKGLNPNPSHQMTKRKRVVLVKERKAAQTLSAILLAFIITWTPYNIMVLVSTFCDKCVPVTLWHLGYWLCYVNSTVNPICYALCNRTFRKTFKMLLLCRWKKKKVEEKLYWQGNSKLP

M1 muscarinic receptor [3] = target: T3, M1 muscarinic receptor (Homo sapiens, UniProt P11229); assay: Competition with [3H]NMS (equilibrium binding, CHO membranes); conditions: for Ki: read-out: Binding Equilibrium Constants (expressed as pKI) (converted)
T3 sequence (P11229 1-460): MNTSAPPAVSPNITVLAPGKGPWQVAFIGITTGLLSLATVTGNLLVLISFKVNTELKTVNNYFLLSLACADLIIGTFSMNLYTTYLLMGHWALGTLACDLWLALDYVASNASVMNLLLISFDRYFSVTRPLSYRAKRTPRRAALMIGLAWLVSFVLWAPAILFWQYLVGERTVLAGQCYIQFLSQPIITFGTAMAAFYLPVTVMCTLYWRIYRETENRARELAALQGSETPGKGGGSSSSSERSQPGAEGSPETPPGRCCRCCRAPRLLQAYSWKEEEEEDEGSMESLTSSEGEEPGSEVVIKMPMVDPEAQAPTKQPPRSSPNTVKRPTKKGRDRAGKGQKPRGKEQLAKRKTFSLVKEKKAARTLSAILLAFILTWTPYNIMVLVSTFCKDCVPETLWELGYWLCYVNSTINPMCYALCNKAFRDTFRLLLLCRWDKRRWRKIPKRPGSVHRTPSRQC
Experimental: (§1) All radioligand binding experiments were optimized and carried out as described earlier. Briefly, membranes were incubated in 96-well plates at 30° C. in the incubation medium described. […] Dissociation was initiated by addition of atropine to final concentration of 5 Tested ligands in final concentration of 100 μM were added concurrently with atropine. Incubations were terminated by filtration through Whatman GF/C glass fiber filters (Whatman) using a Brandel cell harvester (Brandel, Gaithersburg, Md., USA). Filters were dried in vacuum for 1 h while heated at 80° C. and then solid scintillator Meltilex A was melted on filters (105° C., 90 s) using a hot plate. The filters were cooled and counted in Wallac Microbeta scintillation counter.
(§2) Inhibition constant KI was calculated as: […]

M3 muscarinic receptor [4] = target: T4, M3 muscarinic receptor (Homo sapiens, UniProt P20309); assay: as above; conditions: read-out: Binding Equilibrium Constants (expressed as pKI) (converted)
T4 construct: host or cells: Chinese hamster ovary cells
T4 sequence (P20309 whole entry): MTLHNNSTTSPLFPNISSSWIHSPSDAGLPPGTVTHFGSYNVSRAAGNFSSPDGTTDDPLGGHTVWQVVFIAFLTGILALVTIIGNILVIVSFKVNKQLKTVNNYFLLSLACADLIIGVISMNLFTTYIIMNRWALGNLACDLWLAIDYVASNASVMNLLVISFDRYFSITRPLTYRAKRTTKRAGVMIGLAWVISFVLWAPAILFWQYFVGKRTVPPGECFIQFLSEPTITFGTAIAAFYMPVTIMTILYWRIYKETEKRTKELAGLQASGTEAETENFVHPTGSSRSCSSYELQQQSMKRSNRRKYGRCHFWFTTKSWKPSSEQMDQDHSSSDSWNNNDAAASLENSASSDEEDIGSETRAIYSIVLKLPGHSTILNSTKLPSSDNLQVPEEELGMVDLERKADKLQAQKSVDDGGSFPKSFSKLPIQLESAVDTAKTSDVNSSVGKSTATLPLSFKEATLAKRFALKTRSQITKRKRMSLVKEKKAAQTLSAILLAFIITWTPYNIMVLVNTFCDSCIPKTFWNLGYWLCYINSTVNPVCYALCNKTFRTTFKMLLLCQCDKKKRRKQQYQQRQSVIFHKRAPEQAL
Experimental: as §1, §2

M4 muscarinic receptor [5] = target: T1, M4 muscarinic receptor; assay: as above; conditions: read-out: Binding Equilibrium Constants (expressed as pKI) (converted)
Experimental: as §1, §2

M5 muscarinic receptor [6] = target: T2, M5 muscarinic receptor; assay: as above; conditions: read-out: Binding Equilibrium Constants (expressed as pKI) (converted)
Experimental: as §1, §2

M1 muscarinic receptor [7] = target: T3, M1 muscarinic receptor; assay: Accumulation of inositol phosphates in CHO cells; type: cell-based; conditions: ligand 0.1 mM, no carbachol
M3 muscarinic receptor [8] = target: T4, M3 muscarinic receptor; assay: Accumulation of inositol phosphates in CHO cells; type: cell-based; conditions: ligand 0.1 mM, no carbachol
[9] = test system: M1-M5 muscarinic receptors; assay: Accumulation of inositol phosphates, statements over all subtypes; type: cell-based, human; conditions: for basal functional response (in the absence of carbachol): 0.1 mM, at all receptor subtypes; for functional selectivity of antagonism: from shifts in carbachol EC50, Table 6
Experimental: Antagonism of tested compounds was determined at single high concentration of 0.1 mM.

[10] = test system: M1-M5 muscarinic receptors; assay: Competition with [3H]NMS, statements over all subtypes; type: binding, human; conditions: versus other subtypes; from pKI, Table 4
M5 muscarinic receptor [11] = target: T2, M5 muscarinic receptor; assay: [3H]NMS saturation binding; conditions: M5 CHO membranes; binding sites per mg of membrane protein

Compound | EMAX (M4 muscarinic receptor [1]; M4 CHO cells, accumulation of inositol phosphates) [fold over basal] | EMAX (M5 muscarinic receptor [2]; M5 CHO cells, accumulation of inositol phosphates) [fold over basal] | Ki (M1 muscarinic receptor [3]) [µM] | Ki (M3 muscarinic receptor [4]) [µM] | Ki (M4 muscarinic receptor [5]) [µM] | Ki (M5 muscarinic receptor [6]) [µM] | Effect of ligands on basal activity (accumulation of inositol phosphates as percent of accumulation in the absence of the ligand) (M1 muscarinic receptor [7]) [%] | Effect of ligands on basal activity (accumulation of inositol phosphates as percent of accumulation in the absence of the ligand) (M3 muscarinic receptor [8]) [%] | Effect of ligands on basal activity (accumulation of inositol phosphates as percent of accumulation in the absence of the ligand) (M4 muscarinic receptor [1]) [%] | Effect of ligands on basal activity (accumulation of inositol phosphates as percent of accumulation in the absence of the ligand) (M5 muscarinic receptor [2]) [%] | higher affinity for the M2 and M5 receptors [10] | functional selectivity of antagonism [9] | higher affinity for M1 receptor (M1 muscarinic receptor [3]; versus other subtypes, from pKI, Table 4) | basal functional response (in the absence of carbachol) [9] | BMAX (M5 muscarinic receptor [11]) [pmol/mg]
C[N+](C)(C)CCOC(N)=O [carbachol, Carbachol, reference compound] | 3.3 ± 0.3 | 2.5 ± 0.2 | – | – | – | – | – | – | – | – | – | – | – | – | –
CCCCOc1ccc(C(=O)OCC[N+]2(C)CC=CCC2)cc1 (stereo not drawn) [Compound 10a, 2-(1,2,5,6-tetrahydropyridine-N-ethyl)-4-butoxybenzoate N-methyl iodide] | – | – | 2.51 | 6.31 | 7.94 | 3.16 | 83 ± 3 | 74 ± 3 | 74 ± 7 | 89 ± 3 | – | – | – | lowered basal functional response | –
CCCCCCOc1ccc(C(=O)OCC[N+]2(C)CC=CCC2)cc1 (stereo not drawn) [Compound 10c, 2-(1,2,5,6-tetrahydropyridine-N-ethyl)-4-hexoxybenzoate N-methyl iodide] | – | – | – | 0.398 | 0.398 | 0.158 | 101 ± 1 | 101 ± 1 | 100 ± 2 | 101 ± 1 | one to three fold | – | – | – | –
C[N+]1(C)[C@@H]2C[C@@H](OC(=O)[C@H](CO)c3ccccc3)C[C@H]1[C@@H]1O[C@@H]12 [NMS, N-methyl scopolamine] | – | – | – | – | – | – | – | – | – | – | – | – | – | – | 1.0 ± 0.1
CCCCOc1ccc(C(=O)OCCN2CC=CCC2)cc1 [Compound 9a, 2-(1,2,5,6-tetrahydropyridine-N-ethyl)-4-butoxybenzoate hydrochloride] | – | – | 6.31 | 7.94 | 12.6 | – | – | 100 ± 1 | 100 ± 6 | – | – | – | – | – | –

More lines, main results first:

EMAX (M4 muscarinic receptor [1]; M4 CHO cells, accumulation of inositol phosphates) [fold over basal] | EMAX (M5 muscarinic receptor [2]; M5 CHO cells, accumulation of inositol phosphates) [fold over basal] | Ki (M1 muscarinic receptor [3]) [µM] | Ki (M3 muscarinic receptor [4]) [µM] | Ki (M4 muscarinic receptor [5]) [µM] | Ki (M5 muscarinic receptor [6]) [µM] | Effect of ligands on basal activity (accumulation of inositol phosphates as percent of accumulation in the absence of the ligand) (M1 muscarinic receptor [7]) [%] | Effect of ligands on basal activity (accumulation of inositol phosphates as percent of accumulation in the absence of the ligand) (M3 muscarinic receptor [8]) [%] | Effect of ligands on basal activity (accumulation of inositol phosphates as percent of accumulation in the absence of the ligand) (M4 muscarinic receptor [1]) [%] | Effect of ligands on basal activity (accumulation of inositol phosphates as percent of accumulation in the absence of the ligand) (M5 muscarinic receptor [2]) [%] | higher affinity for the M2 and M5 receptors [10] | functional selectivity of antagonism [9] | higher affinity for M1 receptor (M1 muscarinic receptor [3]; versus other subtypes, from pKI, Table 4) | Compound | basal functional response (in the absence of carbachol) [9] | BMAX (M5 muscarinic receptor [11]) [pmol/mg]
– | – | 3.16 | 2.04 | 3.98 | 2.45 | 104 ± 4 | 104 ± 4 | 107 ± 4 | 104 ± 4 | – | M1/M5 functionally selective | – | CCCCc1ccc(C(=O)OCC[N+]2(C)CCCCC2)cc1 [Compound 13b, 2-(N-Piperidineethyl) p-butylbenzoyl ester N-methyl iodide] | – | –
– | – | 7.94 | 15.8 | 25.1 | 25.1 | 85 ± 4 | 81 ± 5 | 73 ± 6 | 88 ± 3 | – | M1/M4 functionally selective antagonists | two to three-fold | CCCCc1ccc(C(=O)OCCN2CC=CCC2)cc1 [Compound 9b, 2-(1,2,5,6-tetrahydropyridine-N-ethyl)-4-butylbenzoate hydrochloride] | lowered basal functional response | –
– | – | 3.98 | 6.31 | 9.77 | 5.01 | 103 ± 3 | 103 ± 3 | 106 ± 1 | 103 ± 3 | – | M1/M3 functionally selective antagonist | – | CCCCc1ccc(C(=O)OCCN2CCCCC2)cc1 [Compound 14b] | – | –
– | – | 2.51 | 3.98 | 3.98 | 1.58 | 98 ± 9 | – | – | 90 ± 10 | – | – | – | CCCCc1ccc(C(=O)OCC[N+]2(C)CC=CCC2)cc1 (stereo not drawn) [Compound 10b, 2-(1,2,5,6-tetrahydropyridine-N-ethyl)-4-butylbenzoate N-methyl iodide] | – | –
